Experimental data: patent publication US10004701B2, “Methods and compositions for treating infection” (UNIVERSITY OF ROCHESTER, priority 2012, dated 2018)
Structures can show the parent of a compound that is named as a salt. Where two headings read alike, the source gives them in different places.

Experiments:
Assay in all cases: AK assay 384-well format, Prestwick library screening
[1] = tested on: A. baumannii strain 98-37-09; assay type: cell-based, Acinetobacter baumannii; conditions: 50 μM final drug concentration; for fold induction at 50 µM: Acinetobacter baumannii, 983709, 3 h
E. coli = assay type: cell-based, Escherichia coli; conditions: 50 μM final drug concentration; for fold induction at 50 µM: Escherichia coli, 3 h
K. pneumoniae = assay type: cell-based, Klebsiella pneumoniae; conditions: 50 μM final drug concentration; for fold induction at 50 µM: Klebsiella pneumoniae, 3 h
E. faecium = assay type: cell-based, Enterococcus faecium; conditions: 50 μM final drug concentration; for fold induction at 50 µM: Enterococcus faecium, 3 h
P. aeruginosa = assay type: cell-based, Pseudomonas aeruginosa; conditions: 50 μM final drug concentration; for fold induction at 50 µM: Pseudomonas aeruginosa, 3 h
E. cloacae = assay type: cell-based, Enterobacter cloacae; conditions: 50 μM final drug concentration; for fold induction at 50 µM: Enterobacter cloacae, 3 h
[2] = tested on: S. aureus strain USA300-0114; assay type: cell-based, Staphylococcus aureus; conditions: 50 μM final drug concentration; for fold induction at 50 µM: Staphylococcus aureus, USA300, 3 h
[3] = cutoff for positive-scoring molecules 3-fold increase

COc1cc(-c2ccc(N=Nc3ccc4c(S(=O)(=O)[O-])cc(S(=O)(=O)[O-])c(N)c4c3O)c(OC)c2)ccc1N=Nc1ccc2c(S(=O)(=O)[O-])cc(S(=O)(=O)[O-])c(N)c2c1O.[Na+].[Na+].[Na+].[Na+] [Chicago sky blue 6B]
AK-based Prestwick Library Screening Results, A. baumannii (increase in extracellular AK activity) ([1]; planktonic A. baumannii, cutoff for positive-scoring molecules 3-fold increase): 0.4 | AK-based Prestwick Library Screening Results, E. coli (increase in extracellular AK activity) (E. coli; planktonic E. coli, cutoff for positive-scoring molecules 3-fold increase): 0.5 | AK-based Prestwick Library Screening Results, K. pneumoniae (increase in extracellular AK activity) (K. pneumoniae; planktonic K. pneumoniae, cutoff for positive-scoring molecules 3-fold increase): 0.3 | AK-based Prestwick Library Screening Results, E. faecium (increase in extracellular AK activity) (E. faecium; planktonic E. faecium, cutoff for positive-scoring molecules 3-fold increase): 0.5 | AK-based Prestwick Library Screening Results, P. aeruginosa (increase in extracellular AK activity) (P. aeruginosa; planktonic P. aeruginosa, cutoff for positive-scoring molecules 3-fold increase): 0.4 | AK-based Prestwick Library Screening Results, E. cloacae (increase in extracellular AK activity) (E. cloacae; planktonic E. cloacae, cutoff for positive-scoring molecules 3-fold increase): 0.9 | AK-based Prestwick Library Screening Results, S. aureus (increase in extracellular AK activity) ([2]; planktonic S. aureus, cutoff for positive-scoring molecules 3-fold increase): 0.0

CCOc1ccc(Cc2nccc3cc(OCC)c(OCC)cc23)cc1OCC [Ethaverine hydrochloride]
fold induction at 50 µM ([1]; planktonic, cutoff for positive-scoring molecules 3-fold increase, read-out: AK-based Prestwick Library Screening Results, A. baumannii (fold increase in extracellular AK activity)): 0.9 | fold induction at 50 µM (E. coli; planktonic, cutoff for positive-scoring molecules 3-fold increase, read-out: AK-based Prestwick Library Screening Results, E. coli (fold increase in extracellular AK activity)): 0.9 | fold induction at 50 µM (K. pneumoniae; planktonic, cutoff for positive-scoring molecules 3-fold increase, read-out: AK-based Prestwick Library Screening Results, K. pneumoniae (fold increase in extracellular AK activity)): 0.7 | fold induction at 50 µM (E. faecium; planktonic, cutoff for positive-scoring molecules 3-fold increase, read-out: AK-based Prestwick Library Screening Results, E. faecium (fold increase in extracellular AK activity)): 1 | fold induction at 50 µM (P. aeruginosa; planktonic, cutoff for positive-scoring molecules 3-fold increase, read-out: AK-based Prestwick Library Screening Results, P. aeruginosa (fold increase in extracellular AK activity)): 0.9 | fold induction at 50 µM (E. cloacae; planktonic, cutoff for positive-scoring molecules 3-fold increase, read-out: AK-based Prestwick Library Screening Results, E. cloacae (fold increase in extracellular AK activity)): 1 | fold induction at 50 µM ([2]; planktonic, cutoff for positive-scoring molecules 3-fold increase, read-out: AK-based Prestwick Library Screening Results, S. aureus (fold increase in extracellular AK activity)): 0.5

OC[C@H]1O[C@@H](Oc2ccc(O)cc2)[C@H](O)[C@@H](O)[C@@H]1O [Arbutin]
fold induction at 50 µM ([1]; planktonic A. baumannii, positive cutoff 3-fold increase, read-out: AK-based Prestwick library screening result, A. baumannii (fold increase in extracellular AK activity)): 1.5 | fold induction at 50 µM (E. coli; planktonic E. coli, positive cutoff 3-fold increase, read-out: AK-based Prestwick library screening result, E. coli (fold increase in extracellular AK activity)): 1.2 | fold induction at 50 µM (K. pneumoniae; planktonic K. pneumoniae, positive cutoff 3-fold increase, read-out: AK-based Prestwick library screening result, K. pneumoniae (fold increase in extracellular AK activity)): 1.2 | fold induction at 50 µM (E. faecium; planktonic E. faecium, positive cutoff 3-fold increase, read-out: AK-based Prestwick library screening result, E. faecium (fold increase in extracellular AK activity)): 0.9 | fold induction at 50 µM (P. aeruginosa; planktonic P. aeruginosa, positive cutoff 3-fold increase, read-out: AK-based Prestwick library screening result, P. aeruginosa (fold increase in extracellular AK activity)): 1.1 | fold induction at 50 µM (E. cloacae; planktonic E. cloacae, positive cutoff 3-fold increase, read-out: AK-based Prestwick library screening result, E. cloacae (fold increase in extracellular AK activity)): 1.4 | fold induction at 50 µM ([2]; planktonic S. aureus, positive cutoff 3-fold increase, read-out: AK-based Prestwick library screening result, S. aureus (fold increase in extracellular AK activity)): 1.1

CO[C@@]1(NC(=O)CSCC#N)C(=O)N2C(C(=O)O)=C(CSc3nnnn3C)CS[C@@H]21 [Cefmetazole sodium salt]
fold induction at 50 µM ([1]; cutoff for positive-scoring molecules 3-fold increase, read-out: AK-based Prestwick Library Screening Results, A. baumannii (fold increase in extracellular AK activity)): 1.4 | fold induction at 50 µM (E. coli; cutoff for positive-scoring molecules 3-fold increase, read-out: AK-based Prestwick Library Screening Results, E. coli (fold increase in extracellular AK activity)): 20 | fold induction at 50 µM (K. pneumoniae; cutoff for positive-scoring molecules 3-fold increase, read-out: AK-based Prestwick Library Screening Results, K. pneumoniae (fold increase in extracellular AK activity)): 4.6 | fold induction at 50 µM (E. faecium; cutoff for positive-scoring molecules 3-fold increase, read-out: AK-based Prestwick Library Screening Results, E. faecium (fold increase in extracellular AK activity)): 1.4 | fold induction at 50 µM (P. aeruginosa; cutoff for positive-scoring molecules 3-fold increase, read-out: AK-based Prestwick Library Screening Results, P. aeruginosa (fold increase in extracellular AK activity)): 1 | fold induction at 50 µM (E. cloacae; cutoff for positive-scoring molecules 3-fold increase, read-out: AK-based Prestwick Library Screening Results, E. cloacae (fold increase in extracellular AK activity)): 1.6 | fold induction at 50 µM ([2]; cutoff for positive-scoring molecules 3-fold increase, read-out: AK-based Prestwick Library Screening Results, S. aureus (fold increase in extracellular AK activity)): 5

S(−)Eticlopride hydrochloride
AK-based Prestwick Library Screening Results, A. baumannii (fold increase in extracellular AK activity) [1, 3]: 1.0 | AK-based Prestwick Library Screening Results, E. coli (fold increase in extracellular AK activity) (E. coli; [3]): 0.9 | AK-based Prestwick Library Screening Results, K. pneumoniae (fold increase in extracellular AK activity) (K. pneumoniae; [3]): 1.1 | AK-based Prestwick Library Screening Results, E. faecium (fold increase in extracellular AK activity) (E. faecium; [3]): 1.0 | AK-based Prestwick Library Screening Results, P. aeruginosa (fold increase in extracellular AK activity) (P. aeruginosa; [3]): 1.3 | AK-based Prestwick Library Screening Results, E. cloacae (fold increase in extracellular AK activity) (E. cloacae; [3]): 1.8 | AK-based Prestwick Library Screening Results, S. aureus (fold increase in extracellular AK activity) [2, 3]: 1.6

Vitamin K2
AK-based Prestwick library screening result, A. baumannii (fold increase in extracellular AK activity) ([1]; planktonic A. baumannii, positive cutoff 3-fold increase): 1.1 | AK-based Prestwick library screening result, E. coli (fold increase in extracellular AK activity) (E. coli; planktonic E. coli, positive cutoff 3-fold increase): 0.9 | AK-based Prestwick library screening result, K. pneumoniae (fold increase in extracellular AK activity) (K. pneumoniae; planktonic K. pneumoniae, positive cutoff 3-fold increase): 0.8 | AK-based Prestwick library screening result, E. faecium (fold increase in extracellular AK activity) (E. faecium; planktonic E. faecium, positive cutoff 3-fold increase): 1.0 | AK-based Prestwick library screening result, P. aeruginosa (fold increase in extracellular AK activity) (P. aeruginosa; planktonic P. aeruginosa, positive cutoff 3-fold increase): 1.1 | AK-based Prestwick library screening result, E. cloacae (fold increase in extracellular AK activity) (E. cloacae; planktonic E. cloacae, positive cutoff 3-fold increase): 1.6 | AK-based Prestwick library screening result, S. aureus (fold increase in extracellular AK activity) ([2]; planktonic S. aureus, positive cutoff 3-fold increase): 1.8

CC1=C(C(=O)O)N2C(=O)[C@@H](NC(=O)[C@H](N)c3ccc(O)cc3)[C@H]2SC1 [Cefadroxil]
fold induction at 50 µM ([1]; planktonic A. baumannii, cutoff for positive-scoring molecules 3-fold increase, read-out: AK-based Prestwick Library Screening Results, A. baumannii (increase in extracellular AK activity)): 0.9 | fold induction at 50 µM (E. coli; planktonic E. coli, cutoff for positive-scoring molecules 3-fold increase, read-out: AK-based Prestwick Library Screening Results, E. coli (increase in extracellular AK activity)): 0.9 | fold induction at 50 µM (K. pneumoniae; planktonic K. pneumoniae, cutoff for positive-scoring molecules 3-fold increase, read-out: AK-based Prestwick Library Screening Results, K. pneumoniae (increase in extracellular AK activity)): 0.8 | fold induction at 50 µM (E. faecium; planktonic E. faecium, cutoff for positive-scoring molecules 3-fold increase, read-out: AK-based Prestwick Library Screening Results, E. faecium (increase in extracellular AK activity)): 0.8 | fold induction at 50 µM (P. aeruginosa; planktonic P. aeruginosa, cutoff for positive-scoring molecules 3-fold increase, read-out: AK-based Prestwick Library Screening Results, P. aeruginosa (increase in extracellular AK activity)): 0.8 | fold induction at 50 µM (E. cloacae; planktonic E. cloacae, cutoff for positive-scoring molecules 3-fold increase, read-out: AK-based Prestwick Library Screening Results, E. cloacae (increase in extracellular AK activity)): 1.2 | fold induction at 50 µM ([2]; planktonic S. aureus, cutoff for positive-scoring molecules 3-fold increase, read-out: AK-based Prestwick Library Screening Results, S. aureus (increase in extracellular AK activity)): 0.5

Cc1ncc([N+](=O)[O-])n1CC(O)CCl (centres unmarked) [Ornidazole]
fold induction at 50 µM ([1]; 384-well format, cutoff for positive-scoring molecules 3-fold increase, read-out: AK-based Prestwick Library Screening Results, A. baumannii (increase in extracellular AK activity)): 0.6 | fold induction at 50 µM (E. coli; 384-well format, cutoff for positive-scoring molecules 3-fold increase, read-out: AK-based Prestwick Library Screening Results, E. coli (increase in extracellular AK activity)): 0.6 | fold induction at 50 µM (K. pneumoniae; 384-well format, cutoff for positive-scoring molecules 3-fold increase, read-out: AK-based Prestwick Library Screening Results, K. pneumoniae (increase in extracellular AK activity)): 0.5 | fold induction at 50 µM (E. faecium; 384-well format, cutoff for positive-scoring molecules 3-fold increase, read-out: AK-based Prestwick Library Screening Results, E. faecium (increase in extracellular AK activity)): 0.9 | fold induction at 50 µM (P. aeruginosa; 384-well format, cutoff for positive-scoring molecules 3-fold increase, read-out: AK-based Prestwick Library Screening Results, P. aeruginosa (increase in extracellular AK activity)): 0.6 | fold induction at 50 µM (E. cloacae; 384-well format, cutoff for positive-scoring molecules 3-fold increase, read-out: AK-based Prestwick Library Screening Results, E. cloacae (increase in extracellular AK activity)): 0.6 | fold induction at 50 µM ([2]; 384-well format, cutoff for positive-scoring molecules 3-fold increase, read-out: AK-based Prestwick Library Screening Results, S. aureus (increase in extracellular AK activity)): 0.5
